Laboratory results reported in PubChem BioAssay (NCI).
Several values for one entry are separate records, joined by “and”; a condition that tells them apart may be missing. Equal values may be shown once.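 Briefly, cells in 96-well plates were exposed to five compound concentrations for 48 h, and endpoints were estimated by linear interpolation. At the GI50, growth is halved. TGI marks complete inhibition of growth.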

Tests used:
Test in all cases: DTP human tumour cell line panel, 48 h
[1] = test system: SF-295 CNS
[2] = test system: SK-MEL-5 melanoma
[3] = test system: LOX IMVI melanoma
[4] = test system: OVCAR-8 ovarian
[5] = test system: OVCAR-4 ovarian
[6] = test system: HCT-116 colon
[7] = test system: A498 renal
[8] = test system: K-562 leukemia
[9] = test system: IGROV1 ovarian
[10] = test system: A549 NSCLC

COc1ccc(OCC(=O)O)c2c1CCC(C)C2=O (stereo not drawn)
TGI [1]: > 100 µM | TGI [2]: > 100 µM | TGI [3]: > 100 µM | TGI [4]: > 100 µM | TGI [5]: > 100 µM | TGI [6]: > 100 µM | TGI [7]: > 100 µM | TGI [8]: > 100 µM | TGI [9]: > 100 µM | TGI [10]: > 100 µM

O=C1C=C(NCCc2ccccc2)c2ccccc2C1=O
TGI [1]: 4.76 µM | TGI [2]: 2.31 µM | TGI [3]: 3.37 µM | TGI [4]: 19.7 µM | TGI [5]: 13.4 µM | TGI [6]: 18 µM | TGI [7]: 10.1 µM | TGI [8]: 20.4 µM | TGI [9]: 21.3 µM | TGI [10]: 3.79 µM

Cc1c(-c2ccc(-c3ccccc3F)cc2)nc2ccc(F)cc2c1C(=O)O
GI50 [1]: 0.163 µM and 1.37 µM | TGI [1]: 43.6 µM and 48.6 µM and 210 µM | GI50 [2]: 2.37 µM | TGI [2]: 58.6 µM and 186 µM | GI50 [3]: 0.508 µM | TGI [3]: 31.2 µM and 71.3 µM | GI50 [4]: 0.257 µM and 0.711 µM | TGI [4]: 161 µM and 244 µM | GI50 [5]: 41 µM and 81.6 µM | TGI [5]: 88.7 µM and 524 µM | GI50 [6]: 0.5 µM | TGI [6]: 78.7 µM and 124 µM | TGI [7]: 181 µM and 647 µM | TGI [8]: 211 µM and 401 µM | GI50 [9]: 0.726 µM and 0.654 µM | TGI [9]: 64.8 µM and 227 µM | GI50 [10]: 0.384 µM and 0.679 µM | TGI [10]: 78 µM and 99.3 µM and 149 µM

COc1ccc2c(CN3CCCC[C@H]3O)cc3cc4c(cc3c2c1)OCO4
GI50 [1]: 0.354 µM | TGI [1]: 2.81 µM | GI50 [2]: 0.345 µM | TGI [2]: 1.39 µM | GI50 [3]: 0.228 µM | TGI [3]: 0.849 µM | GI50 [4]: 0.268 µM | TGI [4]: 3.94 µM | GI50 [5]: 0.393 µM | TGI [5]: 2.99 µM | GI50 [6]: 0.223 µM | TGI [6]: 10.7 µM | GI50 [7]: 0.542 µM | TGI [7]: 1.47 µM | GI50 [8]: 0.364 µM | TGI [8]: 4.35 µM | GI50 [9]: 0.368 µM | TGI [9]: 9.3 µM | GI50 [10]: 0.28 µM | TGI [10]: 2.82 µM

O=C1C(=O)N(c2cc(Cl)ccc2Cl)C(=O)C(=O)C1c1nc2ccccc2s1
TGI [1]: > 100 µM | TGI [2]: > 100 µM | TGI [3]: > 100 µM | TGI [4]: > 100 µM | TGI [5]: > 100 µM | TGI [6]: > 100 µM | TGI [7]: > 100 µM | TGI [8]: > 100 µM | TGI [9]: > 100 µM | TGI [10]: > 100 µM

Cc1nc(Nc2ccc(Cl)cc2)sc1C(=O)Nc1cccc2c(=O)[nH][nH]c(=O)c12
TGI [1]: 74.3 µM | TGI [2]: 45.2 µM | TGI [3]: 33 µM | TGI [4]: > 100 µM | TGI [5]: > 100 µM | TGI [6]: > 100 µM | TGI [7]: 59.4 µM | TGI [8]: 47.3 µM | TGI [9]: 83.5 µM | TGI [10]: > 100 µM

COc1ccc(C(=O)c2ccccc2)c(O)c1
GI50 [1]: 36 µM | TGI [1]: > 100 µM | GI50 [2]: 37.9 µM | TGI [2]: > 100 µM | GI50 [3]: 92 µM | TGI [3]: > 100 µM | GI50 [4]: > 100 µM | TGI [4]: > 100 µM | GI50 [5]: > 100 µM | TGI [5]: > 100 µM | GI50 [6]: 50.7 µM | TGI [6]: > 100 µM | GI50 [7]: 16 µM | TGI [7]: > 100 µM | GI50 [8]: 91 µM | TGI [8]: > 100 µM | GI50 [9]: > 100 µM | TGI [9]: > 100 µM | GI50 [10]: > 100 µM | TGI [10]: > 100 µM

Cc1cc(C)c(-c2c(O)c(Br)c(-c3c(C)cc(C)c(Br)c3C)c(O)c2Br)c(C)c1Br
GI50 [1]: 1.83 µM | TGI [1]: 5.01 µM | GI50 [2]: 1.77 µM | TGI [2]: 4.24 µM | GI50 [3]: 1.74 µM | TGI [3]: 3.39 µM | GI50 [4]: 3.08 µM | TGI [4]: 10.4 µM | GI50 [5]: 2.56 µM | TGI [5]: 9.92 µM | GI50 [6]: 2.13 µM | TGI [6]: 5.53 µM | GI50 [7]: 4.67 µM | TGI [7]: 20.5 µM | GI50 [8]: 2.65 µM | TGI [8]: 13.9 µM | GI50 [9]: 3.59 µM | TGI [9]: 13.9 µM | GI50 [10]: 2.73 µM | TGI [10]: 11.7 µM

CCOC(=O)c1sc(NC(=O)COc2ccc(/C=C3\CCc4cc(OC)ccc4C3=O)cc2)nc1C
GI50 [1]: 11.1 µM | TGI [1]: 23.9 µM | GI50 [2]: 12.4 µM | TGI [2]: 24.8 µM | GI50 [3]: 1.31 µM | TGI [3]: 18.8 µM | GI50 [4]: 9.5 µM | TGI [4]: 34.7 µM | GI50 [5]: 11.8 µM | TGI [5]: 27.7 µM | GI50 [6]: 12.9 µM | TGI [6]: 25.6 µM | GI50 [7]: 13.2 µM | TGI [7]: 30.1 µM | GI50 [8]: 3.71 µM | TGI [8]: > 40.3 µM | GI50 [9]: 1.63 µM | TGI [9]: 6.22 µM | GI50 [10]: 13.1 µM | TGI [10]: 35.8 µM

Cc1cccc(C=NC23CC4CC(CC(C4)C2)C3)c1
TGI [1]: > 100 µM | TGI [2]: > 100 µM | TGI [3]: > 100 µM | TGI [4]: > 100 µM | TGI [5]: > 100 µM | TGI [6]: > 100 µM | TGI [7]: > 100 µM | TGI [8]: > 100 µM | TGI [9]: > 100 µM | TGI [10]: > 100 µM

COC(=O)CCC(NC(=S)N/N=C(\C)c1cccs1)C(=O)OC (stereo not drawn)
TGI [1]: > 100 µM | TGI [2]: > 100 µM | TGI [3]: > 100 µM | TGI [4]: > 100 µM | TGI [5]: > 100 µM | TGI [6]: > 100 µM | TGI [7]: > 100 µM | TGI [8]: > 100 µM | TGI [9]: > 100 µM | TGI [10]: > 100 µM

CC(C)C(Br)C(=O)NCC(=O)O (stereo not drawn)
TGI [1]: > 100 µM | TGI [2]: > 100 µM | TGI [3]: > 100 µM | TGI [4]: > 100 µM | TGI [5]: > 100 µM | TGI [6]: > 100 µM | TGI [7]: > 100 µM | TGI [8]: > 100 µM | TGI [9]: > 100 µM | TGI [10]: > 100 µM

CCOC(=N)CC(=O)Nc1ccccc1CC
TGI [1]: > 100 µM | TGI [2]: > 100 µM | TGI [3]: > 100 µM | TGI [4]: > 100 µM | TGI [5]: > 100 µM | TGI [6]: > 100 µM | TGI [7]: > 100 µM | TGI [8]: > 100 µM | TGI [9]: > 100 µM | TGI [10]: > 100 µM

Cn1cnnc1Sc1c([N+](=O)[O-])nc(-c2ccc([N+](=O)[O-])cc2)n1C
TGI [1]: > 100 µM | TGI [2]: 30.8 µM | TGI [3]: 26.8 µM | TGI [4]: 33 µM | TGI [5]: 29.5 µM | TGI [6]: 28.4 µM | TGI [7]: > 100 µM | TGI [8]: 53.2 µM | TGI [9]: 33.4 µM | TGI [10]: > 100 µM
